Measurements taken from patent publication US10995068B2, “Synthetic sphingolipid-like molecules, drugs, methods of their synthesis and methods of treatment” (The Regents of the University of California, priority 2015, dated 2021).

Key:
[1] = system: non-transformed murine OP9 bone marrow stromal cells and primary murine embryonic fibroblasts (MEFs); test: Sensitivity of non-transformed cells versus cancer cell lines; type: cell-based; details: OP9 and primary MEFs versus DLD-1, LS180, SW48, SW480, SW620, MDA-MB-231, PANC-1
Description: Consistent with the bioenergetic mechanism described supra, cells with a higher anabolic rate should be more sensitive to sphingolipid-like compounds. In exemplary experiments testing this mechanism, murine FL5.12 cells with different anabolic rates were treated with SH-BC-893. The anabolic rate of FL5.12 cells can be titrated by modulating the levels of their required growth factor, IL-3; comparing FL5.12 cells grown in high and low IL-3 allows the impact of elevated growth factor signaling and anabolism to be evaluated in a constant genetic background. High concentrations of IL-3 drive aerobic glycolysis and a rapid doubling time (12 h). Reducing IL-3 levels slows proliferation and increases oxidative phosphorylation without compromising cell viability (FIGS. 53A and 53B). […] Many of these cancer cell lines carry activating mutations in Ras. […]
Cell culture and reagents. […] Cell viability was measured by vital dye exclusion using either propidium iodide or DAPI at 1 μg/ml. Analysis of cell surface 4F2hc levels with PE-conjugated anti-CD98 was restricted to viable cells as determined by DAPI exclusion. Anchorage-independent growth of SW620 cells was measured in DMEM-10 containing 0.35% low melt agarose with a 0.5% agarose bottom layer. […]

[2] = Blood chemistry of pDKO mice; type: in vivo; details: for Alkaline Phosphatase: Means ± SEM, n = 4, in U/L (unit assumed); for Albumin / Globulin / Total Protein: in g/dL (unit assumed); for Blood Urea Nitrogen / Ca^2+ / Cholesterol / P / Total Bilirubin: in mg/dL (unit assumed); for HCO^3−: in mmol/L (unit assumed); for Creatine: unit assumed
Description: In vivo studies. Experiments conducted in mice were performed in accordance with the Institutional Animal Care and Use Committee of University of California, Irvine following a power analysis conducted in consultation with the Biostatistics Shared Resource of Chao Family Comprehensive Cancer Center at UCI. Xenografts were produced by injecting 5 million cells subcutaneously in the flank of 10-16 week-old male or female NSG mice. Prostate isografts were produced in the same manner but in male 6-8 wk old C57BL/6 mice. Once tumors reached 100 mm^3, SH-BC-893 was administered by intraperitoneal (i.p.) injection or oral gavage as indicated. Tumor volume was calculated using the formula, volume (mm^3)=length [mm]×(width [mm])^2×0.52; BLI was measured using an IVIS imaging system (Xenogen). To generate pDKO mice on the C57BL6 background, Pten^flox mice (stock No. 0045597) and p53^flox mice (stock No. 008462) were obtained from the Jackson Laboratory and PB-Cre4 mice (strain #01XF5) were obtained from the NCI-Frederick Mouse Repository. Age-matched cohorts of pDKO males were generated by in vitro fertilization executed with the assistance of the Transgenic Mouse Facility at UC Irvine. Treatment was begun at 6-7 wks of age. […] Tumor samples were processed and imaged by the Pathology Research Services Core Facility at UC Irvine. Blood chemistry was analyzed by IDEXX BioResearch and complete blood counts were performed using a Hemavet hematology system.

[3] = 60 mg/kg, at sacrifice, in U/L (unit assumed)
[4] = 120 mg/kg, at sacrifice, in U/L (unit assumed)

Q: Which results are given for CCCCCCCCc1ccc([C@H]2CCN[C@@H]2CO)cc1.Cl [Compound 5, (2S,3R)-2-(hydroxymethyl)-3-(4-octylphenyl)Pyrrolidinium chloride]?
A: sensitivity compared with human cancer cell lines [1]: less sensitive; Glucose ([2]; 60 mg/kg, at sacrifice): 282 ± 24^; Alkaline Phosphatase ([2]; 60 mg/kg, at sacrifice): 77 ± 7.8; Creatine Phosphokinase [2, 3]: 5,340 ± 2366; Serum Glutamic Oxaloacetic Transaminase (Asp aminotransferase) [2, 3]: 640 ± 136; Serum Glutamic-Pyruvic Transaminase (Ala aminotransferase) [2, 3]: 78 ± 25; Albumin ([2]; 60 mg/kg, at sacrifice): 3 ± 0.2; Globulin ([2]; 60 mg/kg, at sacrifice): 2 ± 0.18; Total Protein ([2]; 60 mg/kg, at sacrifice): 5 ± 0.4; Blood Urea Nitrogen ([2]; 60 mg/kg, at sacrifice): 19 ± 1.1; Ca^2+ ([2]; 60 mg/kg, at sacrifice): 10 ± 0.7; Cholesterol ([2]; 60 mg/kg, at sacrifice): 134 ± 15.8; P ([2]; 60 mg/kg, at sacrifice): 11 ± 1.0; Total Bilirubin ([2]; 60 mg/kg, at sacrifice): 0.1 ± 0; HCO^3− ([2]; 60 mg/kg, at sacrifice): 20 ± 3.2; Creatine ([2]; 60 mg/kg, at sacrifice): < 0.2 mg/dL; Glucose ([2]; 120 mg/kg, at sacrifice): 307 ± 28^; Alkaline Phosphatase ([2]; 120 mg/kg, at sacrifice): 83 ± 6.2; Serum Glutamic Oxaloacetic Transaminase (Asp aminotransferase) [2, 4]: 907 ± 171; Serum Glutamic-Pyruvic Transaminase (Ala aminotransferase) [2, 4]: 91 ± 17.2; Albumin ([2]; 120 mg/kg, at sacrifice): 3 ± 0.1; Globulin ([2]; 120 mg/kg, at sacrifice): 2 ± 0.03; Total Protein ([2]; 120 mg/kg, at sacrifice): 6 ± 0.2; Blood Urea Nitrogen ([2]; 120 mg/kg, at sacrifice): 23 ± 1.5; Ca^2+ ([2]; 120 mg/kg, at sacrifice): 10 ± 0.1; Cholesterol ([2]; 120 mg/kg, at sacrifice): 107 ± 7.5; P ([2]; 120 mg/kg, at sacrifice): 13 ± 0.1; Total Bilirubin ([2]; 120 mg/kg, at sacrifice): 0.2 ± 0.03; HCO^3− ([2]; 120 mg/kg, at sacrifice): 17 ± 2.8; Creatine ([2]; 120 mg/kg, at sacrifice): < 0.2 mg/dL; toxicity to the liver or kidneys by blood chemistry at sacrifice ([2]; anti-neoplastic dose): not toxic to the liver or kidneys
